Source: US4352788A, “Derivatives of 2,4,6-triiodo-isophthalic acid, processes for their synthesis and X-ray contrasting materials containing these” (Bracco Industria Chimica S.p.A., priority 1979, dated 1982)
In brackets after ≈: the same amount, converted by molar mass. Entries after “also recorded” stand apart in the source; their conditions may differ. Read-outs that look alike come from different tables or passages of the source. Values belong to the compound of their own block, whether it stands above or below them.

Legend:
Water solubility = assay type: physicochemical; details: for solubility: water
[1] = Viscosity of aqueous solutions; assay type: physicochemical; details: for Viscosity at 37° C.: injection solution (Example 14)
[2] = compared with METRIZAMIDE; cited from earlier work
[3] = cited from earlier work
[4] = Osmotic pressure of solutions; assay type: physicochemical; details: for Osmotic Pressure: 37° C.
[5] = prior art; cited from earlier work
Osmolality of solutions = assay type: physicochemical; details: 37° C.
[6] = cited from earlier work; for water solubility (in words): prior art
[7] = Solubility in organic solvents; assay type: physicochemical
[8] = Stability (hydrolysis, aqueous solution); assay type: physicochemical
[9] = Density of injection solution; assay type: physicochemical; details: injection solution (Example 14), in g/mL (unit assumed)
[10] = at 25° C., read-out: Water solubility
[11] = aqueous solution containing 300 mg I/ml, 20° C.
[12] = aqueous solution containing 300 mg I/ml, 37° C.
[13] = aqueous solution containing 400 mg I/ml, 20° C.
[14] = aqueous solution containing 400 mg I/ml, 37° C.
[15] = at 20° C., Table 1, read-out: Solubility in Water

SMILES: C[C@H](O)C(=O)Nc1c(I)c(C(=O)NC(CO)CO)c(I)c(C(=O)NC(CO)CO)c1I [IOPAMIDOL hydrate, reference compound]
- water solubility (Water solubility; at 20° C.): 307 mg of iodine per ml
- solubility (Water solubility; at 20° C., read-out: water solubility): 627 mg/mL

SMILES: C[C@H](O)C(=O)Nc1c(I)c(C(=O)NC(CO)CO)c(I)c(C(=O)NC(CO)CO)c1I [Compound B, L-5-α-hydroxypropionylamino-2,4,6-triiodo-isophthalic-acid-bis-(1,3-dihydroxyisopropylamide), reference compound]
- water solubility (Water solubility; at 20° C., text): 89.7 % w/v
- water solubility (Water solubility; at 20° C., listed as IOPAMIDOL): 440 mg of iodine per ml
- Viscosity [1, 11]: 8.95 cP
- Viscosity [1, 12]: 4.70 cP
- Viscosity [1, 13]: 40.6 cP
- Viscosity [1, 14]: 16.1 cP
- viscosity of concentrated aqueous solutions (in words) [2]: lower viscosity
- stability (in words) ([3]; compared with METRIZAMIDE): higher stability
- Osmotic Pressure ([4]; 250 mg I/ml): 13.09 atm
- Osmotic Pressure ([4]; 300 mg I/ml): 15.76 atm
- Osmotic Pressure ([4]; 350 mg I/ml): 18.77 atm
- toxicity (in words) [5]: very low
- Osmolality (Osmolality of solutions; 250 mg I/ml): 514 mOsm/kg
- Osmolality (Osmolality of solutions; 300 mg I/ml): 619 mOsm/kg
- Osmolality (Osmolality of solutions; 350 mg I/ml): 737 mOsm/kg

SMILES: CC(=O)Nc1c(I)c(C(=O)N[C@H]2C(O)O[C@H](CO)[C@@H](O)[C@@H]2O)c(I)c(N(C)C(C)=O)c1I (stereo partly drawn) [C, 3-acetylamino-4-N-methyl-acetylamino-2,4,6-triiodobenzoylglucosamine, reference compound]
- solubility (Water solubility; [15]): ~800 mg/mL (≈ 1010 mM)
- Viscosity [1, 11]: 11.7 cP
- Viscosity [1, 12]: 5.98 cP
- Viscosity [1, 13]: 77.8 cP
- Viscosity [1, 14]: 26.9 cP
- stability in aqueous solutions (in words) ([3]; prior art): relatively little stability in aqueous solutions
- water solubility (in words) [6]: readily water-soluble

SMILES: CC(=O)Nc1c(I)c(C(=O)NCC(O)CO)c(I)c(C(=O)NCC(O)CO)c1I (stereo not drawn) [5-acetylamino-2,4,6-triiodoisophthalic-acid-bis-(2,3-dihydroxypropylamide)]
- water solubility ([6]; at 20°-40° C.): 1 % (w/v)
- water solubility (in words) [6]: slightly water-soluble

SMILES: CN(C(=O)CO)c1c(I)c(C(=O)NCC2COC(C)(C)O2)c(I)c(C(=O)NCC2COC(C)(C)O2)c1I (stereo not drawn) [Example 13(A), 5-(N-methyl-hydroxyacetyl-amino)-2,4,6-triiodo-isophthalic-acid-bis-(2,3-isopropylidenedihydroxypropylamide)]
- water solubility (in words) (Water solubility): only slightly soluble in water
- solubility in chloroform (in words) ([7]; chloroform): very soluble
- Solubility in ethanol (in words) [7]: very soluble
- solubility in methanol (in words) ([7]; methanol): very soluble

Further lines, with some results ahead:

- solubility (Water solubility; [10]): ≥ 1000 mg/mL
SMILES: CCCN(C(=O)[C@H](C)O)c1c(I)c(C(=O)NC(CO)CO)c(I)c(C(=O)NC(CO)CO)c1I [Example 3]

- solubility (Water solubility; temperature not stated, read-out: Water solubility): ≥ 1000 mg/mL
SMILES: CCCCN(C(=O)[C@H](C)O)c1c(I)c(C(=O)NC(CO)CO)c(I)c(C(=O)NC(CO)CO)c1I [Example 4, L-5-(N-butyl-α-hydroxypropionyl-amino)-2,4,6-triiodo-isophthalic-acid-bis-(1,3-dihydroxyisopropylamide)]

- solubility (Water solubility; [10]): ≥ 1000 mg/mL
SMILES: C[C@H](O)C(=O)N(C)c1c(I)c(C(=O)NC(CO)CO)c(I)c(C(=O)NC(CO)CO)c1I [Example 1, L-5-(N-methyl-α-hydroxypropionyl-amino)-2,4,6-triiodoisophthalic-acid-bis-(1,3-dihydroxyisopropylamide)]

- water solubility (in words) (Water solubility): only limited solubility in water
SMILES: CC(O)C(=O)Nc1c(I)c(C(=O)NC(CO)CO)c(I)c(C(=O)NC(CO)CO)c1I (racemic) [d,L-5-α-hydroxypropionylamino-2,4,6-triiodo-isophthalic-acid-bis-(1,3-dihydroxyisopropylamide)]

- stability (in words) [8]: high stability
- water solubility (in words) (Water solubility; listed as Example 9): very readily soluble
- water solubility (in words) (Water solubility; listed as Example 11): very soluble
- solubility (Water solubility; [15]): > 1000 mg/mL
- solubility (Water solubility; read-out: solubility in water): 3000 mg/mL (≈ 3860 mM)
- Viscosity [1, 11]: 7.55 cP
- Viscosity [1, 12]: 4.19 cP
- Viscosity [1, 13]: 22.0 cP
- Viscosity [1, 14]: 9.87 cP
- Viscosity at 37° C. ([1]; 200 mg iodine/ml): 1.87 cP
- Viscosity at 37° C. ([1]; 300 mg iodine/ml): 4.19 cP
- Viscosity at 37° C. ([1]; 420 mg iodine/ml): 20.03 cP
- Density at 37° C. ([9]; 200 mg iodine/ml): 1.207
- Density at 37° C. ([9]; 300 mg iodine/ml): 1.316
- Density at 37° C. ([9]; 420 mg iodine/ml): 1.453
- Solubility in ethanol (in words) [7]: limited
- Solubility in ethanol ([7]; ethanol at 25° C.): 35 parts by volume
- Solubility in ethanol ([7]; ethanol at the boiling point): 20 parts by volume
- solubility ([7]; methanol, organic solvent or mixture): 1000 mg/mL (≈ 1290 mM)
- solubility in methanol (in words) ([7]; methanol, listed as Example 9): very readily soluble
- solubility in methanol (in words) ([7]; methanol, listed as Example 11): very soluble
- Osmotic Pressure ([4]; 250 mg I/ml): 11.52 atm
- Osmotic Pressure ([4]; 300 mg I/ml): 13.64 atm
- Osmotic Pressure ([4]; 350 mg I/ml): 15.98 atm
- osmotic pressure (in words) ([4]; compared with IOPAMIDOL): less than that of IOPAMIDOL
- Osmolality (Osmolality of solutions; 250 mg I/ml): 452 mOsm/kg
- Osmolality (Osmolality of solutions; 300 mg I/ml): 536 mOsm/kg
- Osmolality (Osmolality of solutions; 350 mg I/ml): 628 mOsm/kg
SMILES: CN(C(=O)CO)c1c(I)c(C(=O)NCC(O)CO)c(I)c(C(=O)NCC(O)CO)c1I (stereo not drawn) [Compound A, 5-(N-methyl-hydroxyacetylamino)-2,4,6-triiodo-isophthalic-acid-bis-(2,3-dihydroxypropylamide)]
- water solubility (in words) (Water solubility): comparatively particularly high water-solubility; also recorded: higher water solubility
- viscosity of aqueous solutions (in words) [1]: low viscosity; also recorded: appreciably lower viscosity

- supersaturation of aqueous solutions (Water solubility): supersaturated
- water solubility (in words) (Water solubility): dissolves in water very readily
SMILES: CC(O)C(=O)N(C)c1c(I)c(C(=O)NC(CO)CO)c(I)c(C(=O)NC(CO)CO)c1I (racemic) [d,L-5-(N-methyl-α-hydroxypropionyl-amino)-2,4,6-triiodo-isophthalic-acid-bis-(1,3-dihydroxyisopropylamide]
